From ChEMBL document CHEMBL1130560, “Kinetic studies of the reaction of S-nitroso-L-cysteine with L-cysteine” (Bioorg Med Chem Lett, 1997)

Assay: First order rate constant for spontaneous decomposition
Format: ADME

Rate constant: 0.0000146 s⁻¹
SMILES: N[C@@H](CSN=O)C(=O)O
